Results from US10183940B2, “Aryl and heteroaryl-fused tetrahydro-1,4-oxazepine amides as somatostatin receptor subtype 4 (SSTR4) agonists” (Boehringer Ingelheim International GmbH, priority 2014, dated 2019).
pEC50: −log10 of the molar value.

Columns and labels:
[1] = molecular target: human Somatostatin 4 receptor (SSTR4) (Homo sapiens (Human), UniProt P31391); assay: cAMP assay with human Somatostatin 4 receptor; assay type: cell-based; details: hSSTR4 expressing H4 cells, inhibition of Forskolin-stimulated cAMP; read-out: SSTR4 agonism EC50
Chain of human Somatostatin 4 receptor (SSTR4) (P31391 whole entry): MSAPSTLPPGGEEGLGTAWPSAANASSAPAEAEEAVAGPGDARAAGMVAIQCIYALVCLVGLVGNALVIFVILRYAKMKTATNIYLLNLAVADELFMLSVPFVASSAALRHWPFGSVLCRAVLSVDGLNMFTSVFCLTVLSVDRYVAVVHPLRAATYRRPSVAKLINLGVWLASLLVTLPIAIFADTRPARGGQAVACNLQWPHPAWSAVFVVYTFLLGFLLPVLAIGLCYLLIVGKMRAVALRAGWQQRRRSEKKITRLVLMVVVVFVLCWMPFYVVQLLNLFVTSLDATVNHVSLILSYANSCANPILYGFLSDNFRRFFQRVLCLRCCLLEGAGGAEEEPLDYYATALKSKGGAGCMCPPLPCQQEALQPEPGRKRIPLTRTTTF
Experimental: Method description for cAMP assay with human Somatostatin 4 receptor.
The activation of the SSTR4 receptor (Gi coupled) causes an inhibition of intracellular cAMP after stimulation with Forskolin, which can be quantifiable by use of a suitable assay Kit and an adequate plate reader. This technique is used to characterize pharmacological effects of the SSTR4 receptor agonists by use of hSSTR4 expressing H4 cells.
Compounds are dissolved and diluted in DMSO. The final test solution contains […]. The cAMP standard (Lance cAMP 384 Kit; PerkinElmer, Cat #AD0264) is prepared in assay buffer (HBSS with 0.1% BSA, 5 mM HEPES, […], pH 7.4) containing 1% DMSO and the cAMP standard curve is included at least on one plate. Cells are centrifuged and suspended in assay buffer (incl. 1:100 diluted Alexa antibody).
For the assay 5 μl of a cell suspension (approximately 5000 cells/well)—incl. Alexa antibody (diluted 1:100) are added into a 384 well MTP microtitre plate excepting one row or column (depending on the plate layout), which is reserved for the standard curve. Then 2 μl of compound sample is added as concentration response curve (e.g. 1e-5 M to 6e-10 M), usually in triplicates. Each assay contains incubations with vehicle controls instead of compound as controls for non-inhibited cAMP generation (100% CTL; ‘high values’) and incubations with 1 μM Somatosatin as controls for full inhibition and background (0% CTL; ‘low values’). After approximately 10-15 min incubation time 3 μl Forskolin (dissolved in DMSO, final conc. 15 μM) is added. Then the plates are shaken briefly and incubated for 60 min at room temperature. After 60 min 10 μl of the detection mix is added into all wells followed by an additional incubation period of 1 h. The plates are read in a suitable plate reader.
The analysis of the data is based on the “ratio” of the time-resolved fluorescence measurements of donor and acceptor fluorophore (Ex: 320 nm; Em1: 665 nm; Em2: 615 nm; ratio 665/615). From this ratio, cAMP concentrations are calculated from standard curve and the EC50 is estimated by least square curve fit program.

[2] = Metabolic stability in human liver microsomes; assay type: in vitro ADME; details: pooled human liver microsomes, 37° C., 1 μM test compound, NADPH; for half-life at 1 μM: pH 7.6, read-out: Half-life t1/2
Experimental: The metabolic stability of the compounds according to the invention may be investigated as follows:
The metabolic degradation of the test compound is assayed at 37° C. with pooled human liver microsomes. The final incubation volume of 100 μl per time point contains TRIS buffer pH 7.6 at room temperature (0.1 M), magnesium chloride (5 mM), microsomal protein (1 mg/mL) and the test compound at a final concentration of 1 μM. Following a short preincubation period at 37° C., the reactions are initiated by addition of beta-nicotinamide adenine dinucleotide phosphate, reduced form (NADPH, 1 mM), and terminated by transferring an aliquot into solvent after different time points. After centrifugation (10000 g, 5 min), an aliquot of the supernatant is assayed by LC-MS/MS for the amount of parent compound. The half-life is determined by the slope of the semi-logarithmic plot of the concentration-time profile.

Compound | pEC50 [1] | half-life at 1 μM [2] [min] | Half-life t1/2 [2] [min]
Cc1cc2cccnc2c(C(C)(C)NC(=O)c2cccc3c2OCCNC3)n1 [Example 1] | 7.24 |  | 
CC(NC(=O)c1cccc2c1OCCNC2)c1nc2ccccc2[nH]1 (centres unmarked) [Example 2] | 6.52 |  | 
CC(C)(NC(=O)c1cccc2c1OCCNC2)c1nc2ccc(Cl)cc2[nH]1 [Example 3] | 7.35 |  | 
O=C(NC1(c2nc3ccc(Cl)cc3[nH]2)CC1)c1cccc2c1OCCNC2 [Example 4] | 6.47 |  | 
O=C(NC1(c2nc3ccc(Cl)cc3[nH]2)CCOC1)c1cccc2c1OCCNC2 (centres unmarked) [Example 5] | 6.12 |  | 
CC(C)(NC(=O)c1cccc2c1OCCNC2)c1cccc2ccccc12 [Example 7] | 8.85 | 32 | 
CC(C)(NC(=O)c1cccc2c1OCCNC2)c1ccc(Cl)c(Cl)c1.Cl [Example 8] | 7.65 | 4.4 | 
C[C@H](NC(=O)c1cccc2c1OCCNC2)c1cccc2ccccc12.Cl [Example 9] | 8.55 | 19 | 
CC(C)(NC(=O)c1cccc2c1OCCNC2)c1cccc2cccnc12 [Example 10] | 7.38 |  | 
CC(C)(NC(=O)c1cccc2c1OCCNC2)c1cccc2cnccc12 [Example 11] | 6.37 |  | 
CC(C)(NC(=O)c1cccc2c1OCCNC2)c1cccc2ncccc12 [Example 12] | 7.01 |  | 
CC(C)(NC(=O)c1cccc2c1OCCNC2)c1ncc2ccccn12.Cl [Example 13] | 7.84 | > 130 | 
CC(C)(COc1cnccc1C(F)(F)F)NC(=O)c1cccc2c1OCCNC2 [Example 14] | 6.88 |  | 
Cc1cccnc1OCC(C)(C)NC(=O)c1cccc2c1OCCNC2 [Example 15] | 7.55 |  | 
CC(C)(NC(=O)c1cccc2c1OCCNC2)c1ccc(F)cc1 [Example 16] | 7.48 |  | 
CC(C)(NC(=O)c1cccc2c1OCCNC2)c1ccc(Cl)cc1.Cl [Example 17] | 8.09 | 14 | 
Cn1nc(C(C)(C)NC(=O)c2cncc3c2OCCNC3)c2ccccc21 [Example 21] | 7.45 |  | 
Cn1nc(C(C)(C)NC(=O)c2cccc3c2OCCNC3)c2c(F)cccc21 [Example 22] | 8.10 | 42 | 
Cn1nc(C(C)(C)NC(=O)c2cccc3c2OCCNC3)c2ccc(F)cc21 [Example 23] | 9.05 | 67 | 
Cc1cccc2c(C(C)(C)NC(=O)c3cccc4c3OCCNC4)cnn12 [Example 24] | 8.36 | 110 | 
Cn1nc(C(C)(C)NC(=O)c2cccc3c2OCCNC3)c2cccc(C(F)(F)F)c21 [Example 25] | 8.17 |  | 

Compound | pEC50 [1] | half-life at 1 μM [2] [min] | Half-life t1/2 [2] [min]
Cc1ncc(C(C)(C)NC(=O)c2cccc3c2OCCNC3)c2ccccc12 [Example 27] | 9.22 | > 130 | 
Cc1cc2ccccc2c(C(C)(C)NC(=O)c2cccc3c2OCCNC3)n1 [Example 28] | 8.38 | 30 | 
Cc1cc2ccccc2c(C(C)(C)NC(=O)c2nccc3c2OCCNC3)n1 [Example 29] | 7.70 | 27 | 
Cc1cc2ccccc2c(C(C)(C)NC(=O)c2ccnc3c2OCCNC3)n1 [Example 30] | 7.72 |  | 
Cc1cc2ccccc2c(C(C)(C)NC(=O)c2cncc3c2OCCNC3)n1 [Example 31] | 7.43 |  | 
Cc1cccc2c(C(C)(C)NC(=O)c3cccc4c3OCCNC4)noc12 [Example 32] | 8.55 | 54 | 
CC(C)(NC(=O)c1cccc2c1OCCNC2)c1noc2c(F)cccc12 [Example 34] | 7.74 |  | 
CC(C)(NC(=O)c1nccc2c1OCCNC2)c1noc2c(F)cccc12 [Example 35] | 6.46 |  | 
CC(C)(NC(=O)c1ccnc2c1OCCNC2)c1noc2c(F)cccc12 [Example 36] | 6.42 |  | 
CC(C)(NC(=O)c1cncc2c1OCCNC2)c1noc2c(F)cccc12 [Example 37] | 5.80 |  | 
CC(C)(NC(=O)c1cccc2c1OCCNC2)c1noc2c(Cl)cccc12 [Example 38] | 8.54 | 35 | 
Cc1cccc2c(C(C)(C)NC(=O)c3cccc4c3OCCNC4)nn(C)c12 [Example 40] | 8.66 | 31 | 
Cc1cccc2c(C(C)(C)NC(=O)c3ccnc4c3OCCNC4)nn(C)c12 [Example 41] | 7.74 | > 130 | 
CC(C)(NC(=O)c1cccc2c1OCCNC2)c1n[nH]c2c(F)cccc12 [Example 43] | 8.66 | 87 | 
CC(C)(NC(=O)c1cccc2c1OCCNC2)c1n[nH]c2c(Cl)cccc12 [Example 44] | 8.89 | > 130 | 
Cc1cccc2c(C(C)(C)NC(=O)c3cccc4c3OCCNC4)ncnc12 [Example 45] | 8.04 | 110 | 
CC(C)(NC(=O)c1cccc2c1OCCNC2)c1ncnc2ccccc12 [Example 46] | 8.04 | > 130 | 
CC(C)(NC(=O)c1cccc2c1OCCNC2)c1ncc2c(Cl)cccn12 [Example 48] | 8.77 | 85 | 
Cc1cccn2c(C3(NC(=O)c4cccc5c4OCCNC5)CC3)ncc12 [Example 49] | 8.82 | 93 | 
Cc1nc(C(C)(C)NC(=O)c2cccc3c2OCCNC3)n2cccc(F)c12 [Example 50] | 8.70 | 83 | 
COc1cccn2c(C(C)(C)NC(=O)c3cccc4c3OCCNC4)ncc12 [Example 51] | 8.37 |  | 130

Compound | pEC50 [1] | half-life at 1 μM [2] [min] | Half-life t1/2 [2] [min]
Cc1cc(F)cn2c(C(C)(C)NC(=O)c3cccc4c3OCCNC4)ncc12 [Example 52] | 8.06 |  | 
Cc1cccn2c(C(C)(C)NC(=O)c3cccc4c3OCCNC4)nc(C)c12.Cl [Example 53] | 8.80 | 72 | 
Cc1cccn2c(C3(NC(=O)c4cccc5c4OCCNC5)CCC3)ncc12 [Example 54] | 7.82 |  | 
Cc1cccn2c(C(C)(NC(=O)c3cccc4c3OCCNC4)C3CC3)ncc12 (centres unmarked) [Example 55] | 6.87 |  | 
Cc1cccn2c(C(C)(CC(C)C)NC(=O)c3cccc4c3OCCNC4)ncc12 (centres unmarked) [Example 56] | 5.70 |  | 
Cc1cccn2c(C3(NC(=O)c4cccc5c4OCCNC5)CCOC3)ncc12 (centres unmarked) [Example 57] | 6.45 |  | 
Cc1cccn2c(C3(NC(=O)c4cccc5c4OCCNC5)CCOCC3)ncc12 [Example 58] | 5.60 |  | 
CC(C)(NC(=O)c1cccc2c1OCCNC2)c1ncc2c(OC(F)(F)F)cccn12 [Example 59] | 7.52 |  | 
Cc1cccn2c([C@H](C)NC(=O)c3cccc4c3OCCNC4)ncc12 [Example 60] | 7.03 |  | 
CC(C)(NC(=O)c1cccc2c1OCCNC2)c1nc(C2CC2)c2c(F)cccn12 [Example 61] | 8.20 | 45 | 
Cc1cccn2c(C(C)(C)NC(=O)c3cccc4c3OCCNC4)nc(C3CC3)c12 [Example 62] | 8.40 | 32 | 
CC(C)(NC(=O)c1cccc2c1OCCNC2)c1nc(C(F)(F)F)c2c(F)cccn12 [Example 63] | 7.49 |  | 
Cc1nc(C(C)(C)NC(=O)c2cccc3c2OCCNC3)c2cccc(C)c2n1 [Example 65] | 7.67 |  | 
CC(C)(NC(=O)c1cccc2c1OCCNC2)c1ncnc2c(F)cccc12 [Example 66] | 7.52 |  | 
Cc1nc(C(C)(C)NC(=O)c2cccc3c2OCCNC3)c2cccc(F)c2n1 [Example 67] | 7.12 |  | 
Cc1cccn2c(C(C)(C)NC(=O)c3cccc4c3OCCNC4)nnc12 [Example 68] | 7.42 |  | 
Cc1nc2ccccn2c1C(C)(C)NC(=O)c1cccc2c1OCCNC2 [Example 69] | 7.75 |  | 
Cc1cccn2c(C3(NC(=O)c4nccc5c4OCCNC5)CC3)ncc12 [Example 73] | 7.41 |  | 
COc1cccn2c(C(C)(C)NC(=O)c3nccc4c3OCCNC4)ncc12 [Example 74] | 6.97 |  | 
Cc1cccn2c(C(C)(C)NC(=O)c3nccc4c3OCCNC4)nc(C3CC3)c12 [Example 76] | 6.84 |  | 
Cc1cccn2c(C(C)(C)NC(=O)c3nccc4c3OCCNC4)ccc12 [Example 77] | 7.65 |  | 
